From publication PMC12530843, “Identification of a New Interesting BAG3 Modulator Able to Disrupt Cancer‐Related Pathways” (Chemmedchem, 2025)
Like-named read-outs stand apart in the source and are kept apart here.

Tests used:
BAG3 full length = molecular target: T1, BAG3 full length (Homo sapiens, UniProt O95817); experiment: SPR binding on full-length BAG3; details: Biacore T200, 25 °C, 1:1 model; for Kd: read-out: BAG3 FULL KD ± SD
T1 construct: purchased Novus Biologicals (Littleton, Colorado)
T1 sequence (O95817 whole entry): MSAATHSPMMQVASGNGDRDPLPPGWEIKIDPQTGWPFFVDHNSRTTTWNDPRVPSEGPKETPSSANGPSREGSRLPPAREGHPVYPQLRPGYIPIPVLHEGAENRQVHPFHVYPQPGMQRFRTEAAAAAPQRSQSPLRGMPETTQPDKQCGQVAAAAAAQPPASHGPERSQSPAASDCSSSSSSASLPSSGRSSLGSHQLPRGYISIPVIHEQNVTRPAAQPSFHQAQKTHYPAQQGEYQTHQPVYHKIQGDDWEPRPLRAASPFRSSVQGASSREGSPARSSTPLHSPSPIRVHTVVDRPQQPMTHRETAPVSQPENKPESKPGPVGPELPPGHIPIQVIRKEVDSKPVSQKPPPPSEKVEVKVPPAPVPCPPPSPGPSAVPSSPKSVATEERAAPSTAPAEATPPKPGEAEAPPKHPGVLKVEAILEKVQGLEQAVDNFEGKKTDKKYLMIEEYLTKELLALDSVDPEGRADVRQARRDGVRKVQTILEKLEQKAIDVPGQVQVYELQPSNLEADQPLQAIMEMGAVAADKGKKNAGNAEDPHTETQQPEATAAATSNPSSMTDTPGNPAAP
Method: (§1) Recombinant human BAG3 protein (Bcl2‐associated athanogene 3) was obtained from Novus Biologicals (Littleton, Colorado), while the BAG3 domain (BAG3‐BD) was sourced from ARETA International S.r.l. (Gerenzano, Italy). We used (Z)‐ethyl 2‐(5‐(3,4‐dihydroxybenzylidene)‐2,4‐dioxothiazolidin‐3‐yl)acetate (LK4), a BAG3 inhibitor previously identified by our group.^[ [13] ^] SPR spectroscopy was performed using a Biacore T200 optical biosensor with CM5 sensor chips (Cytiva, Marlborough, USA) to assess the affinity of synthesized molecules for BAG3 and BAG‐BD. BAG3 and BAG‐BD were immobilized on CM5 sensor chip using standard amine‐coupling protocol.^[ [15] ^, [42] ^, [43] ^] BAG3 protein (0.067 μg μL^−1 in 10 mM CH3COONa, pH 4.5) was immobilized at a flow rate of 10 μL min^−1, achieving a surface density of 14 kRU, while BAG3‐BD (0.38 μg μL^−1 in 10 mM CH3COONa, pH 4.5) reached a density of 4 kRU. For the experiments, BAG3 and BAG‐BD surfaces, as well as an unmodified reference surface, were prepared for simultaneous analysis. Compounds 1–10 and LK4 were initially dissolved to 10 mM in 100% DMSO, then diluted 1:20 (v/v) in PBS‐P buffer (0.2 M phosphate buffer, 27 mM KCl, 1.37 M NaCl, 0.5% surfactant P20) resulting in a final DMSO concentration of 5.0%. The compounds were injected in a concentration series (1:2 dilution, 10 different concentrations) ranging from 0 to 100 μM, using 96‐well plates. SPR experiments were conducted at 25 °C with a flow rate of 20 μL min^−1, featuring a 90 s association phase followed by a 400 s dissociation phase. Changes in mass, recorded as resonance units (RU), were used to quantify binding responses, while K D values were determined using Biaevaluation software by globally fitting the double‐referenced association and dissociation data to a 1:1 interaction model. (See Figure S43–S56, Supporting Information).

BAG3-BD = molecular target: T2, BAG3-BD (Homo sapiens, UniProt O95817); experiment: SPR binding on BAG3 BAG domain; details: Biacore T200, 25 °C, 1:1 model; for Kd: read-out: BAG3–BD KD ± SD
T2 construct: the BAG3 domain (BAG3‐BD) was sourced from ARETA International S.r.l; (Gerenzano, Italy); purchased ARETA International S.r.l
T2 sequence (O95817 421-498 limits assumed): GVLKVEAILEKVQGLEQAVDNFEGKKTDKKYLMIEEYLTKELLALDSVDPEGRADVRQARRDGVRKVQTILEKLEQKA
Method: as §1

HeLa cells [1] = experiment: MTT cell viability, HeLa; assay type: cell-based
Method: (§2) Human cell lines of lung adenocarcinoma (A549), cervical carcinoma (HeLa), malignant melanoma (A375), breast adenocarcinoma (MCF7), and immortalized human keratinocytes (HaCaT) were cultured in high‐glucose DMEM supplemented with FBS (10%, v/v), glutamine (2 mM L^−1), penicillin (100 U mL^−1), and streptomycin ([…]). Cells were maintained at 37 °C in a humidified 5% CO2 atmosphere and subcultured every 2 days to maintain logarithmic growth. The human cell lines were kindly donated by Prof. Ornella Moltedo, Department of Pharmacy, University of Salerno.^[ [15] ^, [44] ^]
Cell viability was evaluated using a colorimetric assay to measure mitochondrial metabolic activity through the reduction of 3‐[4,5‐dimethylthiazol‐2,5‐diphenyl‐2H‐tetrazolium bromide (MTT) to purple formazan. Stock solutions of SP18 and compounds 1, 2, 5–8 (50 mM in DMSO) were stored at −20 °C in the dark and diluted immediately before addition to the sterile culture medium. The final concentration of DMSO for the tested compounds was 0.1%, which was consistent with the percentage of DMSO used in the negative control. A549 (3.5 × 10³ cells well^−1), HeLa (3.5 × 10³ cells well^−1), A375 (5.0 × 10³ cells well^−1), and MCF7 (3.5 × 10³ cells well^−1) cells were seeded in triplicate in 96‐well plates. After 24 h to allow for attachment, cells were treated with various concentrations of the compounds (10 and 50 µM), using 0.1% (v/v) DMSO as a negative control and 10% (v/v) DMSO as a positive control following treatment, 20 μL of MTT solution (5 mg mL^−1 in PBS) were added to each well, and cells were incubated for 3 h at 37 °C. Formazan crystals were then dissolved in 100 μL of a buffer containing 50% (v/v) N,N‐dimethylformamide and 20% SDS (pH 4.5), and absorbance was measured at 570 nm using a Multiskan GO Microplate Spectrophotometer (Thermo Fisher Scientific, USA).^[ [44] ^] […] IC50 values, defined as the concentration causing 50% inhibition of cell survival, were calculated and compared to DMSO‐treated controls using GraphPad Prism 8.0 software via nonlinear regression. IC50 values for SP18 and compound 2 were also determined in HaCaT cells (5.0 × 10³ cells well^−1) after 48 or 72 h of treatment.^[ [15] ^]

HaCaT cells = experiment: MTT cell viability, HaCaT healthy keratinocytes; assay type: cell-based, human
Method: as §2
Cell viability was evaluated using a colorimetric assay to measure mitochondrial metabolic activity through the reduction of 3‐[4,5‐dimethylthiazol‐2,5‐diphenyl‐2H‐tetrazolium bromide (MTT) to purple formazan. Stock solutions of SP18 and compounds 1, 2, 5–8 (50 mM in DMSO) were stored at −20 °C in the dark and diluted immediately before addition to the sterile culture medium. The final concentration of DMSO for the tested compounds was 0.1%, which was consistent with the percentage of DMSO used in the negative control. […] Formazan crystals were then dissolved in 100 μL of a buffer containing 50% (v/v) N,N‐dimethylformamide and 20% SDS (pH 4.5), and absorbance was measured at 570 nm using a Multiskan GO Microplate Spectrophotometer (Thermo Fisher Scientific, USA).^[ [44] ^] […]

HeLa cells [2] = experiment: Cell cycle / hypodiploid nuclei by PI flow cytometry; assay type: cell-based, human
Method: Hypodiploid nuclei were analyzed by propidium iodide (PI) staining using flow cytometry. HeLa cells (1 × 10^5 cells well^−1) were cultured in 12‐well plates and allowed to adhere for 24 h. The medium was then refreshed, and cells were treated with SP18 (0.75, 1.5, 3, 6, and 12 µM) for 48 h or compound 2 (10, 30, and 50 µM) for 72 h, with 0.1% (v/v) DMSO as a control. The final concentration of DMSO for the tested compounds was 0.1%, which is consistent with the percentage of DMSO used in the negative control. Following treatment, the culture medium was replaced, and cells were washed twice with PBS before being resuspended in 500 μL of a solution containing 50 mg L^−1 PI, 0.1% (w/v) sodium citrate, and 0.1% Triton X‐100. To include both dead and live cells in the analysis, the culture medium and PBS washes were centrifuged, and the resulting cell pellets were combined with the main cell suspension. Cells were then incubated at 4 °C for 30 min in the dark, and nuclei were analyzed using a Becton Dickinson FACScan flow cytometer (Franklin Lakes, USA) with Cell Quest software. DNA content was recorded, and cellular debris was excluded by adjusting the forward scatter threshold. The percentage of cells in the hypodiploid region (sub‐G0) and those in the G1, S, and G2 phases were calculated.^[ [45] ^] (See Figure S57–S58, Supporting Information).

Row | SMILES | BAG3 FULL KD ± SD (BAG3 full length) | Kd (BAG3 full length) [µM] | BAG3–BD KD ± SD (BAG3-BD) | Kd (BAG3-BD) [µM] | mortality at 50 µM (HeLa cells [1]; Homo sapiens, HeLa, 50 µM, 72 h) [%] | IC50 (HeLa cells [1]; Homo sapiens, HeLa, 72 h of exposure, read-out: IC50 on HeLa cells) [µM] | cytotoxicity on healthy HaCaT cells (HaCaT cells; 72 h, up to 70 µM (highest concentration tested)) | effect on cell cycle / hypodiploid nuclei (HeLa cells [2]; 72 h, 10, 30 and 50 µM) | cytotoxicity against HeLa cells (screen) (HeLa cells [1]; 10 and 50 µM, 72 h) | IC50 (HeLa cells [1]; Homo sapiens, HeLa, 48 h of treatment, read-out: IC50 against HeLa) [µM] | IC50 (HaCaT cells; Homo sapiens, HaCaT, 48 h, seven concentrations, MTT) [µM] | effect on cell cycle / hypodiploid nuclei (HeLa cells [2]; 48 h, 0.75 to 12 µM)
1 | O=C(OCc1cn(Cc2ccc3c(c2)C(=O)c2ccccc2C3=O)nn1)c1cccc([N+](=O)[O-])c1 [Compound 2, (1‐((9,10‐Dioxo‐9,10‐dihydroanthracen‐2‐yl)methyl)‐1H‐1,2,3‐triazol‐4‐yl)methyl 3‐nitrobenzoate] | low micromolar range | 1.04 ± 0.03 | low micromolar range | 0.38 ± 0.05 | ~70 | 40.8 ± 5.5 | no significant cytotoxicity | induces hypodiploid nuclei formation in a concentration‐dependent manner |  |  |  | 
2 | O=C(OCc1cn(Cc2ccc(C(=O)c3ccccc3)cc2)nn1)c1cccc([N+](=O)[O-])c1 [SP18] |  | 36 ± 0.85 |  | 43.5 ± 5.09 |  |  |  |  | significant cytotoxicity | 14.8 ± 1.34 | 22.1 ± 0.67 | induces hypodiploid nuclei formation in a concentration‐dependent manner and causes an S‐phase block
